Data reported in patent US8637550B2, “Heteroaryl diamide compounds useful as MMP-13 inhibitors” (Boehringer Ingelheim International GmbH, priority 2008, dated 2014).

target: MMP-13 (Homo sapiens, UniProt P45452); assay: EnzoLyte 520 Generic MMP Assay Kit, 5-FAM/QXL520 FRET peptide substrate; assay type: biochemical
Description: The EnzoLyte™ 520 Generic MMP Assay Kit (AnaSpec Inc.) can detect the activity of several MMPs including MMP-1, 2, 3, 7, 8, 9, 13, and 14. This kit uses a 5-FAM/QXL™520 fluorescence resonance energy transfer (FRET) peptide as an MMP substrate.

Row | IC50 | Structure (SMILES)
1 | 14 nM | CNC(=O)[C@@H](NC(=O)c1ccc(-c2cccc(CNC(=O)c3ccn(C(F)F)n3)c2)o1)C(C)C [1-Difluoromethyl-1H-pyrazole-3-carboxylic acid 3-[5-((S)-2-methyl-1-methylcarbamoyl-propylcarbamoyl)-furan-2-yl]-benzylamide]
2 | 39 nM | CNC(=O)[C@@H](NC(=O)c1ccc(-c2cccc(CNC(=O)c3cc(C(F)(F)F)n(C)n3)c2)o1)C(C)C [1-Methyl-5-trifluoromethyl-1H-pyrazole-3-carboxylic acid 3-[5-((S)-2-methyl-1-methylcarbamoyl-propylcarbamoyl)-furan-2-yl]-benzylamide]
3 | 300 nM | CNC(=O)[C@@H](NC(=O)c1ccc(-c2cccc(CNC(=O)C3CCCCN3C)c2)o1)C(C)C (stereo partly drawn) [1-Methyl-N-[3-(5-{[(1S)-2-methyl-1-(methylcarbamoyl)propyl]carbamoyl}-2-furyl)benzyl]piperidine-2-carboxamide]
4 | 215 nM | CNC(=O)[C@@H](NC(=O)c1ccc(-c2cccc(CNC(=O)C3CCCN(C)C3)c2)o1)C(C)C (stereo partly drawn) [1-Methyl-N-[3-(5-{[(1S)-2-methyl-1-(methylcarbamoyl)propyl]carbamoyl}-2-furyl)benzyl]piperidine-3-carboxamide]
5 | 380 nM | CNC(=O)[C@@H](NC(=O)c1ccc(-c2cccc(CNC(=O)[C@@H]3CCCN3C)c2)o1)C(C)C [1-methyl-N-[3-(5-{[(1S)-2-methyl-1-(methylcarbamoyl)propyl]carbamoyl}-2-furyl)benzyl]-L-prolinamide]
6 | 380 nM | CC[C@H](C)[C@H](NC(=O)c1csc(-c2ccc(Cl)cc2)n1)C(=O)NC [2-(4-Chloro-phenyl)-thiazole-4-carboxylic acid ((1S,2S)-2-methyl-1-methylcarbamoyl-butyl)-amide]
7 | 470 nM | CNC(=O)[C@@H](NC(=O)c1csc(-c2ccc(Cl)cc2)n1)C1CCCCC1 [2-(4-Chlorophenyl)-N-[(1S)-1-cyclohexyl-2-(methylamino)-2-oxoethyl]-1,3-thiazole-4-carboxamide]
8 | 9 nM | CNC(=O)[C@@H](NC(=O)c1ccc(-c2cccc(CNC(=O)c3ccnc(Cl)n3)c2)o1)C(C)C [2-Chloro-N-[3-(5-{[(1S)-2-methyl-1-(methylcarbamoyl)propyl]carbamoyl}-2-furyl)benzyl]pyrimidine-4-carboxamide]
9 | 240 nM | CNC(=O)[C@@H](NC(=O)c1ccc(-c2cccc(CNC(=O)OCC(C)C)c2)o1)C1CCCCC1 [2-Methylpropyl [3-(5-{[(1S)-1-cyclohexyl-2-(methylamino)-2-oxoethyl]carbamoyl}furan-2-yl)benzyl]carbamate]
10 | 280 nM | CNC(=O)[C@@H](NC(=O)c1ccc(-c2cccc(CNC(=O)c3cc(C)no3)c2)o1)C(C)C [3-Methyl-isoxazole-5-carboxylic acid 3-[5-((S)-2-methyl-1-methylcarbamoyl-propylcarbamoyl)-furan-2-yl]-benzylamide]
11 | 6 nM | CNC(=O)[C@@H](NC(=O)c1ccc(-c2cccc(CNC(=O)c3nc(C(F)(F)F)cs3)c2)o1)C(C)C [4-Trifluoromethyl-thiazole-2-carboxylic acid 3-[5-((S)-2-methyl-1-methylcarbamoyl-propylcarbamoyl)-furan-2-yl]-benzylamide]
12 | 110 nM | CNC(=O)[C@@H](NC(=O)c1ccc(-c2ccc(-c3ccnc(C)c3)cn2)o1)C(C)C [5-(2′-Methyl-[3,4′]bipyridinyl-6-yl)-furan-2-carboxylic acid ((S)-2-methyl-1-methylcarbamoyl-propyl)-amide]
13 | 105 nM | CNC(=O)[C@@H](NC(=O)c1ccc(-c2cccc(CNC(=O)NC(C)(C)C)c2)o1)C1CCCCC1 [5-(3-{[(tert-Butylcarbamoyl)amino]methyl}phenyl)-N-[(1S)-1-cyclohexyl-2-(methylamino)-2-oxoethyl]furan-2-carboxamide]
14 | 395 nM | CNC(=O)[C@@H](NC(=O)c1ccc(-c2ccc(Br)cc2)o1)C1CCCCC1 [5-(4-Bromophenyl)-N-[(1S)-1-cyclohexyl-2-(methylamino)-2-oxoethyl]furan-2-carboxamide]
15 | 300 nM | CC[C@H](C)[C@H](NC(=O)c1ccc(-c2ccc(Cl)cc2)o1)C(=O)NC [5-(4-Chloro-phenyl)-furan-2-carboxylic acid ((1S,2S)-2-methyl-1-methylcarbamoyl-butyl)-amide]
16 | 465 nM | CNC(=O)[C@@H](NC(=O)c1ccc(-c2ccc(Cl)cc2)o1)C1CCCC1 [5-(4-Chlorophenyl)-N-[(1S)-1-cyclopentyl-2-(methylamino)-2-oxoethyl]furan-2-carboxamide]
17 | 430 nM | CNC(=O)[C@@H](NC(=O)c1ccc(-c2ccc(Cl)cc2)o1)C1CCNCC1 [5-(4-Chlorophenyl)-N-[(1S)-2-(methylamino)-2-oxo-1-(piperidin-4-yl)ethyl]furan-2-carboxamide]
18 | 475 nM | CNC(=O)[C@@H](NC(=O)c1ccc(-c2ccc(Cl)cc2)o1)C1CCCCC1 [5-(4-chlorophenyl)-N-[(1S)-1-cyclohexyl-2-(methylamino)-2-oxoethyl]furan-2-carboxamide]
19 | 295 nM | CCNC(=O)[C@@H](NC(=O)c1ccc(-c2ccc(C#N)cc2)o1)C1CCCCC1 [5-(4-cyanophenyl)-N-[(1S)-1-cyclohexyl-2-(ethylamino)-2-oxoethyl]furan-2-carboxamide]

Row | IC50 | Structure (SMILES)
20 | 175 nM | CNC(=O)[C@@H](NC(=O)c1ccc(-c2ccc(C#N)cc2)o1)C1CCCCC1 [5-(4-cyanophenyl)-N-[(1S)-1-cyclohexyl-2-(methylamino)-2-oxoethyl]furan-2-carboxamide]
21 | 195 nM | C[C@@H](CO)NC(=O)[C@@H](NC(=O)c1ccc(-c2ccc(C#N)cc2)o1)C1CCCCC1 [5-(4-cyanophenyl)-N-[(1S)-1-cyclohexyl-2-{[(2S)-1-hydroxypropan-2-yl]amino}-2-oxoethyl]furan-2-carboxamide]
22 | 195 nM | COC[C@H](C)NC(=O)[C@@H](NC(=O)c1ccc(-c2ccc(C#N)cc2)o1)C1CCCCC1 [5-(4-cyanophenyl)-N-[(1S)-1-cyclohexyl-2-{[(2S)-1-methoxypropan-2-yl]amino}-2-oxoethyl]furan-2-carboxamide]
23 | 90 nM | CNC(=O)[C@@H](NC(=O)c1ccc(-c2ccc(C#N)cc2)o1)C1CCOCC1 [5-(4-cyanophenyl)-N-[(1S)-2-(methylamino)-2-oxo-1-(tetrahydro-2H-pyran-4-yl)ethyl]furan-2-carboxamide]
24 | 100 nM | N#Cc1ccc(-c2ccc(C(=O)N[C@H](C(=O)NCCO)C3CCCCC3)o2)cc1 [5-(4-cyanophenyl)-N-{(1S)-1-cyclohexyl-2-[(2-hydroxyethyl)amino]-2-oxoethyl}furan-2-carboxamide]
25 | 170 nM | CC(O)CNC(=O)[C@@H](NC(=O)c1ccc(-c2ccc(C#N)cc2)o1)C1CCCCC1 (stereo partly drawn) [5-(4-cyanophenyl)-N-{(1S)-1-cyclohexyl-2-[(2-hydroxypropyl)amino]-2-oxoethyl}furan-2-carboxamide]
26 | 74 nM | COCCNC(=O)[C@@H](NC(=O)c1ccc(-c2ccc(C#N)cc2)o1)C1CCCCC1 [5-(4-cyanophenyl)-N-{(1S)-1-cyclohexyl-2-[(2-methoxyethyl)amino]-2-oxoethyl}furan-2-carboxamide]
27 | 373 nM | CNC(=O)[C@@H](NC(=O)c1ccc(-c2ccc(-c3ccc(C(F)(F)F)cc3)cc2)o1)C1CCCCC1 [5-(4′-Trifluoromethyl-biphenyl-4-yl)-furan-2-carboxylic acid ((S)-cyclohexyl-methylcarbamoyl-methyl)-amide]
28 | 18 nM | CNC(=O)[C@@H](NC(=O)c1ccc(-c2ccc(OCc3ccccc3)cn2)o1)C(C)(C)O [5-(5-Benzyloxy-pyridin-2-yl)-furan-2-carboxylic acid ((S)-2-hydroxy-2-methyl-1-methylcarbamoyl-propyl)-amide]
29 | 18 nM | CNC(=O)[C@@H](NC(=O)c1ccc(-c2ccc(OCc3ccccc3)cn2)o1)C(C)C [5-(5-Benzyloxy-pyridin-2-yl)-furan-2-carboxylic acid ((S)-2-methyl-1-methylcarbamoyl-propyl)-amide]
30 | 245 nM | CNC(=O)[C@@H](NC(=O)c1ccc(-c2ccc(Cl)cn2)o1)C1CCCCC1 [5-(5-Chloropyridin-2-yl)-N-[(1S)-1-cyclohexyl-2-(methylamino)-2-oxoethyl]furan-2-carboxamide]
31 | 69 nM | CNC(=O)[C@@H](NC(=O)c1ccc(-c2ccc(C#N)cn2)o1)C1CCCCC1 [5-(5-Cyanopyridin-2-yl)-N-[(1S)-1-cyclohexyl-2-(methylamino)-2-oxoethyl]furan-2-carboxamide]
32 | 79 nM | CNC(=O)[C@@H](NC(=O)c1ccc(-c2ccc(-c3ccccc3)cn2)o1)C(C)C [5-(5-Phenyl-pyridin-2-yl)-furan-2-carboxylic acid ((S)-2-methyl-1-methylcarbamoyl-propyl)-amide]
33 | 13 nM | CNC(=O)[C@@H](NC(=O)c1ccc(-c2cccc(CNC(=O)c3cc(Br)n(C)n3)c2)o1)C(C)C [5-Bromo-1-methyl-1H-pyrazole-3-carboxylic acid 3-[5-((S)-2-methyl-1-methylcarbamoyl-propylcarbamoyl)-furan-2-yl]-benzylamide]
34 | 103 nM | CNC(=O)[C@@H](NC(=O)c1ccc(-c2ccc(NC(=O)c3cn4c(C#N)cccc4n3)cc2)o1)C1CCCCC1 [5-Cyano-N-[4-(5-{[(1S)-1-cyclohexyl-2-(methylamino)-2-oxoethyl]carbamoyl}furan-2-yl)phenyl]imidazo[1,2-a]pyridine-2-carboxamide]
35 | 160 nM | CNC(=O)[C@@H](NC(=O)c1ccc(-c2cccc(CNC(=O)c3cc(C(F)(F)F)n[nH]3)c2)o1)C(C)C [5-Trifluoromethyl-2H-pyrazole-3-carboxylic acid 3-[5-((S)-2-methyl-1-methylcarbamoyl-propylcarbamoyl)-furan-2-yl]-benzylamide]
36 | 140 nM | CNC(=O)[C@@H](NC(=O)c1ccc(-c2ccc(-c3cccnc3)cn2)o1)C(C)C [5-[3,3′]Bipyridinyl-6-yl-furan-2-carboxylic acid ((S)-2-methyl-1-methylcarbamoyl-propyl)-amide]
37 | 62 nM | CNC(=O)[C@@H](NC(=O)c1ccc(-c2ccc(-c3ccncc3)cn2)o1)C(C)C [5-[3,4′]Bipyridinyl-6-yl-furan-2-carboxylic acid ((S)-2-methyl-1-methylcarbamoyl-propyl)-amide]
